The IC50 is the midpoint of a concentration-inhibition curve. A higher IC50 goes with weaker potency in that assay. One may read the Km as the concentration of substrate that gives half-maximal velocity.

The target in data set [1] is Acetylcholinesterase (Electrophorus electricus, UniProt O42275). In words: Inhibition of electric eel AChE using ATC and BTC iodide as substrate preincubated for 5 mins followed by substrate addition and measured after 2 mins by DTNB reagent based assay.
In data set [2] the target is Cholinesterase (Equus caballus, UniProt P81908). In words: Inhibition of equine serum BuChE using ATC and BTC iodide as substrate preincubated for 5 mins followed by substrate addition and measured after 2 mins by DTNB reagent based assay.
Cholinesterase, sequence (P81908 whole entry): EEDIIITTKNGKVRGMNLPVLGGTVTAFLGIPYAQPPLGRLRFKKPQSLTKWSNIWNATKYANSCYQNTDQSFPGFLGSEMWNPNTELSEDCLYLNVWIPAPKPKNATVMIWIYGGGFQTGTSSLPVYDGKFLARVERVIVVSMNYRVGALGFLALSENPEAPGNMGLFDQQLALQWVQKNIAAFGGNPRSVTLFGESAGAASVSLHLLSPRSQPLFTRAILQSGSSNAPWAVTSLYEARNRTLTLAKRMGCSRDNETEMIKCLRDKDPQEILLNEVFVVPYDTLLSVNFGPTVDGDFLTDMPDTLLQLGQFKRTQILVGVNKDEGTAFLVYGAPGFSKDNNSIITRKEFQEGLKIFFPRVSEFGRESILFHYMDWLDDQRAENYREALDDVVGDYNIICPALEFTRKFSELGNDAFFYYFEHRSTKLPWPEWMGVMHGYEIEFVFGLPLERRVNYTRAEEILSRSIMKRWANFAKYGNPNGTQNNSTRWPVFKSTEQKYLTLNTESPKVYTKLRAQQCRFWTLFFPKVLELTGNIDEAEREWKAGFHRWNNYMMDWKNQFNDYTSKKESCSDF
Data set [3] concerns the target Acetylcholinesterase (Homo sapiens, UniProt P22303). In words: Inhibition of human AChE using ATC and BTC iodide as substrate preincubated for 5 mins followed by substrate addition and measured after 2 mins by DTNB reagent based assay.
The test system of data set [4] is HepG2-ARE-C8. In words: Cytotoxicity against human HepG2-ARE-C8 cells assessed as reduction in cell viability at 5 and 20 uM measured for 24 hrs by MTT assay. The class given is functional, cell-based. (Formazan colour is commonly taken as a measure of viable cells.)
Data set [5] relates to HepG2-ARE-C8. In words: Activation of Nrf2-ARE pathway in human HepG2-ARE-C8 cells at 20 uM measured for 24 hrs by ARE-luciferase assay. The class given is cell-based. The conditions noted are these: filed as activator.
Data set [6] has as its system Mus musculus. In words: Antialzheimer activity against Abeta1-42-induced cognitive impairment ICR mouse model assessed as increase in escape latency at 10 mg/kg, IG administered for 3 to 14 days and measured after 9 to 14 days in presence of donepezil by Morris water maze test. The class given is functional, organism-based. The conditions noted are these: time 9-14 day.

Data set [7] deals with Mus musculus. In words: Antialzheimer activity against Abeta1-42-induced cognitive impairment ICR mouse model assessed as increase in distance to reach target at 10 mg/kg, IG administered for 3 to 14 days and measured after 9 to 14 days in presence of donepezil by Morris water maze test. The class given is functional, organism-based. Conditions: time 9-14 day.
For data set [8], the system named is Mus musculus. In words: Antialzheimer activity against Abeta1-42-induced cognitive impairment ICR mouse model assessed as increase in arrival time at 10 mg/kg, IG administered for 3 to 14 days and measured after 9 to 14 days in presence of donepezil by Morris water maze test. The class given is functional, organism-based. Conditions: time 9-14 day.
Data set [9] concerns Mus musculus. In words: Antialzheimer activity against Abeta1-42-induced cognitive impairment ICR mouse model assessed as confuse escape tracks at 10 mg/kg, IG administered for 3 to 14 days and measured after 9 to 14 days in presence of donepezil by Morris water maze test. Conditions: time 9-14 day. The class given is functional, organism-based.
Data set [10] concerns Mus musculus. In words: Cognitive enhancing effect in amyloid beta (1 to 42)-induced ICR mouse model assessed as increase in ACh level at 20 mg/kg […] in presence of donepezil by ELISA. The class given is functional, organism-based. (An ELISA detects its analyte on a solid surface through an enzyme-linked reagent.)
Compound in data set [11]: Cc1ccc(-c2noc(-c3cccc(OCC4CCN(Cc5cccc(F)c5)CC4)c3)n2)cn1
In words: Non-competitive inhibition of human AChE assessed as decrease in substrate Vmax with constant Km by Lineweaver-Burk plot analysis.

Activity calls are given as the source filed them. The calls are words filed in the database; no cut-off is given here. A value given as a limit tells only on which side of the number the result lay.

Acetylcholinesterase (Electrophorus electricus, UniProt O42275), sequence (O42275 whole entry): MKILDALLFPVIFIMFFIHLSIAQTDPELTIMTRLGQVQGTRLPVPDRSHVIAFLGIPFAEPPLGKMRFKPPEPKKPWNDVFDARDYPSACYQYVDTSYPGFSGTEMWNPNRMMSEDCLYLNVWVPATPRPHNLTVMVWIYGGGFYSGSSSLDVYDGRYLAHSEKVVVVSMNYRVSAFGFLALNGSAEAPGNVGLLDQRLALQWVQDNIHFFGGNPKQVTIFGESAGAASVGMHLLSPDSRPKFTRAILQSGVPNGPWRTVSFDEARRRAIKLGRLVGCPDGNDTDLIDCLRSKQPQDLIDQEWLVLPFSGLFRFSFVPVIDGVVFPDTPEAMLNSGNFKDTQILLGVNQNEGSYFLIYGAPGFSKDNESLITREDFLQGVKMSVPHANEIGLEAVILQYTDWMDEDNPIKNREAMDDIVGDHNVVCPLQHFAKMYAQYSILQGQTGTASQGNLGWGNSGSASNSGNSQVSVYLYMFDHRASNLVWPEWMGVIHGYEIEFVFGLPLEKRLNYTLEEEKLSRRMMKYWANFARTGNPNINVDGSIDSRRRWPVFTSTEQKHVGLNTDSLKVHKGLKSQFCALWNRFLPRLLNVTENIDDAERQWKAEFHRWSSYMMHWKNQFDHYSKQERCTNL

Consider `Cc1ccc(-c2noc(-c3cccc(OCC4CCN(Cc5ccccc5F)CC4)c3)n2)cn1`, for which the half-maximal inhibitory concentration (IC50) in data set [1] was 0.1 µM; in data set [2] it was 15.5 µM; in data set [3] it was 0.29 µM. Moreover, the outcome in data set [4] was inactive.

Turning to `Cc1ccc(-c2noc(-c3cccc(OCC4CCN(Cc5cccc(Cl)c5)CC4)c3)n2)cn1`, the half-inhibitory concentration (IC50) in data set [1] is 2.29 µM; in [2], over 100 µM. The outcome in [4] was inactive.

With `Cc1ccc(CN2CCC(COc3cccc(-c4nc(-c5ccc(C)nc5)no4)c3)CC2)cc1`, the IC50 in [1] is over 100 µM; in data set [2] it was 6.34 µM. Also, in [4], the outcome was inactive.

Consider `Cc1ccc(-c2noc(-c3cccc(OCC4CCN(Cc5ccccn5)CC4)c3)n2)cn1`, for which the IC50 amounted to 1.92 µM in data set [1] and 5.03 µM in data set [2]. The outcome in [4] was inactive.

As for `Cc1ccc(-c2noc(-c3cccc(OCC4CCCN(Cc5ccccc5)C4)c3)n2)cn1` (configuration not stated), the results for the half-maximal inhibitory concentration (IC50) in data set [1] and in data set [2] were 6.46 µM and 2.78 µM, respectively. In data set [4], the result was inactive.

Consider `Cc1ccc(-c2noc(-c3cccc(OCC4CCN(C(=O)c5ccc(F)cc5)CC4)c3)n2)cn1`, for which the 50% inhibitory concentration (IC50) in [1] and in [2] was over 100 µM throughout. Besides, in data set [4], the outcome was inactive.

`Cc1ccc(-c2noc(-c3cccc(OCC4CCN(Cc5ccc(Br)o5)CC4)c3)n2)cn1`: the IC50 in data set [1] was 3.18 µM; in data set [2], over 100 µM. Also, in data set [4], the result was inactive.

On to `Cc1ccc(-c2noc(-c3cccc(OCC4CCN(Cc5ccncc5)CC4)c3)n2)cn1`, for which the half-inhibitory concentration (IC50) in [1] was 16.8 µM; in data set [2] it was over 100 µM. In data set [4], the result was inactive.

Consider `Cc1ccc(-c2noc(-c3cccc(OCC4CCCN(C(=O)c5ccccc5)C4)c3)n2)cn1` (configuration not stated), for which the IC50 in data set [1] came out at 15.9 µM; in [2], 13.8 µM. Moreover, the result in data set [4] was inactive. For the same molecule, the outcome in data set [5] was Active.

In the case of `Cc1ccc(-c2noc(-c3cccc(OCC4CCN(Cc5ccco5)CC4)c3)n2)cn1`, the half-inhibitory concentration (IC50) is 2.53 µM in [1] and over 100 µM in [2]. In data set [4], the result was inactive.

For the molecule `Cc1ccc(-c2noc(-c3cccc(OCC4CCN(Cc5ccc(Br)cc5)CC4)c3)n2)cn1`, the half-inhibitory concentration (IC50) in data set [1] and in data set [2] was over 100 µM in each case. Besides, the result in data set [4] was inactive.

Consider `Cc1ccc(-c2noc(-c3cccc(OCC4CCCN(Cc5ccc(F)cc5)C4)c3)n2)cn1` (configuration not stated), for which the IC50 in data set [1] was over 100 µM; in data set [2], 4.28 µM. The outcome in data set [4] was inactive.

As to `Cc1ccc(-c2noc(-c3cccc(OCC4CCN(Cc5ccc(C#N)cc5)CC4)c3)n2)cn1`, the IC50 in data set [1] is 71.4 µM; in data set [2] it was over 100 µM. The outcome in data set [4] was inactive.

As to `Cc1ccc(-c2noc(-c3cccc(OCC4CCN(Cc5ccc(Cl)o5)CC4)c3)n2)cn1`, the IC50 in [1] is 2 µM; in data set [2], over 100 µM. In addition, the outcome in data set [4] was inactive.

On to `Cc1ccc(-c2noc(-c3cccc(OCC4CCN(Cc5cccnc5)CC4)c3)n2)cn1`, for which the results for the half-inhibitory concentration (IC50) in data set [1] and in data set [2] were 1.28 µM and 3.93 µM, respectively. The result in data set [4] was inactive.

For the molecule `Cc1ccc(-c2noc(-c3cccc(OCC4CCCN(C(=O)c5ccc(F)cc5)C4)c3)n2)cn1` (configuration not stated), the IC50 in [1] is 4.37 µM; in data set [2], 5.78 µM. The result in data set [4] was inactive.

Consider `Cc1ccc(-c2noc(-c3cccc(OCC4CCN(Cc5ccccc5Cl)CC4)c3)n2)cn1`, for which the 50% inhibitory concentration (IC50) in data set [1] was 0.55 µM; in data set [2] it was over 100 µM; in [3] it was 0.57 µM. Also, the result in data set [4] was inactive.

Consider `Cc1ccc(-c2noc(-c3cccc(OCC4CCN(Cc5ccc(C(F)(F)F)cc5)CC4)c3)n2)cn1`, for which the IC50 in data set [1] and in data set [2] was over 100 µM each time. In data set [4], the result was inactive. In data set [5], the outcome was Active.

Turning to `Cc1ccc(-c2noc(-c3cccc(OCC4CCN(Cc5ccc(C)c(C)c5)CC4)c3)n2)cn1`, the concentration for half-maximal inhibition (IC50) was 5.64 µM in [1] and over 100 µM in data set [2]. In addition, the result in data set [4] was inactive.

On to `COc1ccc(CN2CCC(COc3cccc(-c4nc(-c5ccc(C)nc5)no4)c3)CC2)cc1`, for which the IC50 in data set [1] and in data set [2] was over 100 µM in each case. The outcome in data set [4] was inactive.

Take `Cc1ccc(-c2noc(-c3cccc(OCC4CCN(Cc5ccc(F)c(F)c5)CC4)c3)n2)cn1`: the IC50 in [1] came out at 13.9 µM; in data set [2] it was 1.66 µM. Moreover, the outcome in data set [4] was inactive.

As for `Cc1ccc(-c2noc(-c3cccc(OCC4CCN(Cc5ccc(C(C)(C)C)cc5)CC4)c3)n2)cn1`, the IC50 in data set [1] and in data set [2] was over 100 µM in each case. Further, the outcome in data set [4] was inactive. The outcome in data set [5] was Active.

Take `Cc1ccc(-c2noc(-c3cccc(OCC4CCCN(Cc5ccccc5F)C4)c3)n2)cn1` (configuration not stated): the IC50 in data set [1] worked out at 8.14 µM; in data set [2] it was 17.6 µM. In [4], the result was inactive.

For the molecule `Cc1ccc(-c2noc(-c3cccc(OCC4CCN(Cc5ccc(F)cc5)CC4)c3)n2)cn1`, the half-maximal inhibitory concentration (IC50) in data set [1] is 0.56 µM; in [2], 1.36 µM; in data set [3], 2.99 µM. Moreover, the outcome in data set [4] was inactive.

Turning to `Cc1ccc(-c2noc(-c3cccc(OCC4CCN(C(=O)c5ccccc5)CC4)c3)n2)cn1`, the figures for the IC50 in [1] and in data set [2] were 59.4 µM and over 100 µM, respectively. Besides, the result in [4] was inactive.

Turning to `Cc1ccc(-c2noc(-c3cccc(OCC4CCN(Cc5ccccc5)CC4)c3)n2)cn1`, the figures for the IC50 in [1], in data set [2] and in [3] were 0.29 µM, 5.05 µM and 0.74 µM, respectively. In addition, the result in [4] was inactive.

As to `Cc1ccc(-c2noc(-c3ccc(F)c(F)c3)n2)cn1`, the outcome in data set [6], in [7], in [8], in [9] and in [10] was Active.

For `Cc1ccc(-c2noc(-c3cccc(OCC4CCN(Cc5ccc(Cl)cc5)CC4)c3)n2)cn1`, the IC50 in data set [1] and in data set [2] was over 100 µM throughout. Besides, the outcome in [4] was inactive.

On to `Cc1ccc(CN2CCCC(COc3cccc(-c4nc(-c5ccc(C)nc5)no4)c3)C2)cc1` (configuration not stated), for which the 50% inhibitory concentration (IC50) is 5.39 µM in data set [1] and over 100 µM in [2]. In addition, the result in data set [4] was inactive.

B1: Acetylcholinesterase (Homo sapiens), P22303 (protein)
chain: MRPPQCLLHTPSLASPLLLLLLWLLGGGVGAEGREDAELLVTVRGGRLRGIRLKTPGGPVSAFLGIPFAEPPMGPRRFLPPEPKQPWSGVVDATTFQSVCYQYVDTLYPGFEGTEMWNPNRELSEDCLYLNVWTPYPRPTSPTPVLVWIYGGGFYSGASSLDVYDGRFLVQAERTVLVSMNYRVGAFGFLALPGSREAPGNVGLLDQRLALQWVQENVAAFGGDPTSVTLFGESAGAASVGMHLLSPPSRGLFHRAVLQSGAPNGPWATVGMGEARRRATQLAHLVGCPPGGTGGNDTELVACLRTRPAQVLVNHEWHVLPQESVFRFSFVPVVDGDFLSDTPEALINAGDFHGLQVLVGVVKDEGSYFLVYGAPGFSKDNESLISRAEFLAGVRVGVPQVSDLAAEAVVLHYTDWLHPEDPARLREALSDVVGDHNVVCPVAQLAGRLAAQGARVYAYVFEHRASTLSWPLWMGVPHGYEIEFIFGIPLDPSRNYTAEEKIFAQRLMRYWANFARTGDPNEPRDPKAPQWPPYTAGAQQYVSLDLRPLEVRRGLRAQACAFWNRFLPKLLSATDTLDEAERQWKAEFHRWSSYMVHWKNQFDHYSKQDRCSDL
Turning to B1, the Km in data set [11] was found to be 0.233 µM.

Values taken from ChEMBL document CHEMBL5247584, “Design, synthesis and evaluation of fused hybrids with acetylcholinesterase inhibiting and Nrf2 activating functions for Alzheimer's disease” (Eur J Med Chem, 2022).
